Measured values: patent publication US20190275033A1 (Boehringer Ingelheim International GmbH, priority 2016, published 2019)
Entries after “also recorded” stand apart in the source; their conditions may differ.

Tests used:
mouse models of IPF = settings: in vivo; cited from earlier work
[1] = test system: vascular endothelial growth factor receptors (VEGFRs); settings: preclinical studies; cited from earlier work
PDGFR-β = biological target: T1, PDGFR-β (Homo sapiens, UniProt P09619); settings: normal human lung fibroblasts in vitro; cited from earlier work
T1 construct: endogenous in cells; host or cells: normal human lung fibroblasts

[2] = test system: platelet-derived growth factor receptors (PDGFRs); settings: preclinical studies; cited from earlier work
[3] = cited from earlier work
patients with IPF = settings: cited from earlier work
[4] = test system: Bleomycin-induced lung fibrosis in mice; experiment: Bleomycin-induced lung fibrosis in mice; type: in vivo
[5] = test system: Bleomycin-induced lung fibrosis in rats; experiment: Bleomycin-induced lung fibrosis in rats; type: in vivo
[6] = test system: Silica-induced lung fibrosis in mice; experiment: Silica-induced lung fibrosis in mice; type: in vivo
[7] = test system: Skin and lung fibrosis in transgenic Fra-2 mice; experiment: Skin and lung fibrosis in transgenic Fra-2 mice (genetic model of SSc-ILD); type: in vivo
From the text: Data are shown in Huang et al., Ann. Rheum. Dis. […] Clin. Pract. Rheumatol. 2006; 1:134-44.

human lung fibroblasts = settings: cited from earlier work
[8] = test system: Rheumatoid arthritis and lung fibrosis in SKG mice; experiment: Rheumatoid arthritis and lung fibrosis in zymosan-stimulated SKG mice (RA-ILD model)
From the text: Whether this inflammation is helpful to resolve the fibrosis or detrimental remains open.
INTRODUCTION: Rheumatoid arthritis preferentially affects women and approximately […] of patients have lung abnormalities and involvement. From this group approximately 20% will develop rheumatoid arthritis-associated interstitial lung disease (RA-ILD).
RATIONALE: SKG mice, genetically prone to develop autoimmune arthritis, also develop a pulmonary interstitial pneumonia that resembles human cellular and fibrotic non-specific interstitial pneumonia.
Inflammation in the lungs was measured by BAL (bronchoalveolar lavage) cellularity and in enzymatically-digested lungs. Arthritis of joints and digits was scored weekly.

[9] = test system: dermal fibroblasts from patients with SSc; experiment: Dermal fibroblasts from patients with SSc; type: cell-based, human
PDGFR-α = biological target: T2, PDGFR-α (Homo sapiens, UniProt P16234); settings: normal human lung fibroblasts in vitro; cited from earlier work
T2 construct: endogenous in cells; host or cells: normal human lung fibroblasts

[10] = test system: animal models of SSc and SSc-ILD; experiment: Four animal models of SSc and SSc-ILD; type: in vivo
[11] = preclinical studies; cited from earlier work
[12] = test system: collagen-induced arthritis (CIA); experiment: Mouse model of collagen-induced arthritis (CIA); type: in vivo; settings: treatment started 13 days after induction, continued for 5 weeks
[13] = test system: primary human lung fibroblasts from IPF patients; settings: cited from earlier work
[14] = test system: animal models of lung fibrosis; experiment: Three animal models of lung fibrosis; type: in vivo
[15] = test system: fibroblast growth factor receptors (FGFRs); settings: preclinical studies; cited from earlier work
[16] = test system: bleomycin-induced skin fibrosis in mice; settings: therapeutic nintedanib treatment; cited from earlier work
[17] = test system: lung fibroblasts from patients with IPF; settings: cited from earlier work
human lung fibroblast = experiment: Human lung fibroblast contraction; type: cell-based; settings: clinically relevant concentrations
[18] = test system: primary human lung fibroblasts from IPF patients; experiment: Fibroblast to myofibroblast transformation of human lung fibroblasts; type: cell-based
From the text: Nintedanib also attenuated the transformation of lung fibroblasts to myofibroblasts. Fibroblast proliferation, migration and transformation are fundamental processes in the common final path of several diseases resulting in lung fibrosis such as IPF but also SSc-ILD and RA-ILD.

IPF patients = settings: cited from earlier work
[19] = human lung fibroblasts from patients with IPF and control donors
[20] = early treatment, developing lung disease
[21] = early treatment, from week 5 after zymosan
[22] = late treatment, week 16, vs saline
[23] = preventive or therapeutic dosing regimen
[24] = lung fibroblasts from patients with IPF

T2 sequence (P16234 24-1089): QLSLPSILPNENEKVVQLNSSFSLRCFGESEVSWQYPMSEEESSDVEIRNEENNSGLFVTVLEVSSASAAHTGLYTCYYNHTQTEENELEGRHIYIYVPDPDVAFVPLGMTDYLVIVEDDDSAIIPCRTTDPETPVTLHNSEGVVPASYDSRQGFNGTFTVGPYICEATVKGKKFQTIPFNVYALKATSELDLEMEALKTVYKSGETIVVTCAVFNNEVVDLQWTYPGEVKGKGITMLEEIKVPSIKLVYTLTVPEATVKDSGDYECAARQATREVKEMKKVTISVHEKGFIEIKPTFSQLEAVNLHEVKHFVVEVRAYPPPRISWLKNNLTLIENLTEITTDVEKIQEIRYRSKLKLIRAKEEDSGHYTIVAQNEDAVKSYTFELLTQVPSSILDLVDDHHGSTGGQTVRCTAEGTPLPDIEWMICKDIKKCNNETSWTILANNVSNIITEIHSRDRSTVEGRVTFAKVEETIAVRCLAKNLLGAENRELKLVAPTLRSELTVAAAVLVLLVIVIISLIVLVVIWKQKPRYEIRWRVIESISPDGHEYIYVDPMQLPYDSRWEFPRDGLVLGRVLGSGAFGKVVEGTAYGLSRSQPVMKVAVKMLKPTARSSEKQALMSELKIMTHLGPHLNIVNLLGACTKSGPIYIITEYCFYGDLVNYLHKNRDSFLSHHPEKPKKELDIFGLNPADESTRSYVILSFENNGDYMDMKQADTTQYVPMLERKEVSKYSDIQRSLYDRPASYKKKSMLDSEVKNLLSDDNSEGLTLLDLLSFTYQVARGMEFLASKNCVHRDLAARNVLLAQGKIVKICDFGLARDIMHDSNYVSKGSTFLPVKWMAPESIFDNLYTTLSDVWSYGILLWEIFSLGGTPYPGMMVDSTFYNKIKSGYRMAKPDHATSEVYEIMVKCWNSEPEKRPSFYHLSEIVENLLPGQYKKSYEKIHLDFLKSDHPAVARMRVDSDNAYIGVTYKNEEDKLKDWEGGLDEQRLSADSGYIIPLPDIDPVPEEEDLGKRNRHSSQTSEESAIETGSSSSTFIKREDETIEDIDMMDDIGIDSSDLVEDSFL
T1 sequence (P09619 33-1106): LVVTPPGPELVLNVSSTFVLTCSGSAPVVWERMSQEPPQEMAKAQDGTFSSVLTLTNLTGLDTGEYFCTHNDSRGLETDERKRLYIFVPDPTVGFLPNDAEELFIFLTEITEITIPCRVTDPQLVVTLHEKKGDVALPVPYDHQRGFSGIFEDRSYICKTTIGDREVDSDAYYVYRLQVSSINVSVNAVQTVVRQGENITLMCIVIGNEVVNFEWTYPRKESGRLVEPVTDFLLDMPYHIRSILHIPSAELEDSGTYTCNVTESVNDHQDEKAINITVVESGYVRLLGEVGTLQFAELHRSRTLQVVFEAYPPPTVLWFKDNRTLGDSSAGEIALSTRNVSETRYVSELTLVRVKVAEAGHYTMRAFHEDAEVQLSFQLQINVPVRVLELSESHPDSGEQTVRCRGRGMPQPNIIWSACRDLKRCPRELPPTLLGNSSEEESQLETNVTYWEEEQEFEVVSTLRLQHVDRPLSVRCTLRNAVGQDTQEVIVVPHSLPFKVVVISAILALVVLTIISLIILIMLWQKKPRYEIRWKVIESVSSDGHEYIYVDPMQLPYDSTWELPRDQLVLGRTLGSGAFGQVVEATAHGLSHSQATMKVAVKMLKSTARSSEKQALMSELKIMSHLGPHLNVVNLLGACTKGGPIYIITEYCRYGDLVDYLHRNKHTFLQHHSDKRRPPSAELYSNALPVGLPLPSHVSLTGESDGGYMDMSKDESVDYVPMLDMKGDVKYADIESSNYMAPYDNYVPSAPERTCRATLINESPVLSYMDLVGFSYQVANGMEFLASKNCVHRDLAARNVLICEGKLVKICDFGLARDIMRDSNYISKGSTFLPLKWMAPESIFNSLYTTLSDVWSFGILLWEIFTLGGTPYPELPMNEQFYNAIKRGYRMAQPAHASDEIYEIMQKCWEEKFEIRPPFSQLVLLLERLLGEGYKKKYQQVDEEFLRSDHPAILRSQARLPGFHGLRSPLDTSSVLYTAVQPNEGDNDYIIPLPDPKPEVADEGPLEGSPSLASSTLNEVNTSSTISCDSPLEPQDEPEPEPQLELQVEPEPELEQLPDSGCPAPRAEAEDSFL

## COC(=O)c1ccc2c(c1)NC(=O)/C2=C(\Nc1ccc(N(C)C(=O)CN2CCN(C)CC2)cc1)c1ccccc1 [nintedanib, 3-Z-[1-(4-(N-((4-methyl-piperazin-1-yl)-methylcarbonyl)-N-methyl-amino)-anilino)-1-phenyl-methylene]-6-methoxycarbonyl-2-indolinone]
Mouse models of IPF
  fibrosis in histological analyses: reduced
  granuloma formation in histological analysis of lung tissue: reduced
  inflammation in histological analysis of lung tissue: reduced
  inflammatory cytokines: reductions
  lymphocyte counts in the bronchoalveolar lavage fluid: significant reductions
  neutrophil counts in the bronchoalveolar lavage fluid: significant reductions
  total lung collagen: significant reductions
[1]
  inhibition of VEGFRs: highly potent
PDGFR-β
  PDGFR-β activation: inhibit
[2]
  inhibition of PDGFRs: highly potent
[3]; human, in vivo
  elimination via biliary/faecal excretion: > 90%
[3]; patients with hepatic impairment (Child Pugh A, Child Pugh B)
  exposure: increased
Patients with IPF; INPULSIS and TOMORROW trials, 150 mg twice daily
  efficacy versus placebo: positive results
Patients with IPF; both INPULSIS trials, 150 mg twice daily versus placebo
  reduction of the annual rate of decline in FVC (mL/year): approximately 50%
[4]; preventive treatment
  BALF lymphocytes: cytes↓
  IL-1β: IL-1β↓
  Lung fibrosis: fibrosis↓
  Lung inflammation: mation↓
  TIMP-1: TIMP-1↓
[4]; therapeutic treatment
  BALF lymphocytes: cytes↓
  IL-1β: IL-1β↓
  Lung collgen: collgen↓
  Lung fibrosis: fibrosis↓
  Lung inflammation: mation↓
  TIMP-1: TIMP-1↓
[5]; preventive treatment
  Lung fibrosis (Ashcroft score): score)↓
[5]; therapeutic treatment
  Lung fibrosis (Ashcroft score): score)↓
[6]; preventive treatment
  BALF neutrophils + lymphocytes: cytes↓
  IL-1β: IL-1β↓
  KC: KC↓
  Lung collagen: collagen↓
  Lung fibrosis: fibrosis↓
  Lung inflammation: mation↓
  TIMP-1: TIMP-1↓
[6]; therapeutic treatment
  BALF neutrophils + lymphocytes: cytes↓
  IL-1β: IL-1β↓
  IL-6: IL-6↓
  KC: KC↓
  Lung collagen: collagen↓
  Lung fibrosis: fibrosis↓
  Lung inflammation: mation↓
  TIMP-1: TIMP-1↓
[7]; Fra2+/− mice
  Lung fibrosis: normalises
  lung vascular remodelling: normalises
  skin fibrosis: normalises
[7]; therapeutic treatment
  Dermal thickness: thickness↓
  ECM: ECM↓
  Hydroxiproline: Hydroxiproline↓
  MVEC apoptosis: apoptosis↑
  Occluded vessels: vessels↓
  Skin and lung myofibroblast count: count↓
  VSMC: VSMC↓
  Vessel wall thickness: thickness↓
Human lung fibroblasts
  proliferation of human lung fibroblasts from patients with IPF: inhibited
Human lung fibroblasts; [19]
  FGF-2-induced proliferation: inhibit
  VEGF-induced proliferation: inhibit
Human lung fibroblasts; in vitro
  proliferation of normal human lung fibroblasts: inhibit
[8]; SKG mice treated with zymosan
  inflammation in the lung: slight but selective inflammation
[8]; early treatment
  Arthritic score: score↓
  Lung tissue B220 + B-cells: B-cells↑
  Lung tissue CD103 + Dendritic cells: cells↑
  Lung tissue Monocytes: Monocytes↓
  Lung tissue Neutrophils: Neutrophils↑
  static lung compliance: ance↑
[8]; [20]
  lymphocytes in the BAL: trend towards increased
  neutrophils in the BAL: trend towards increased
[8]; early treatment, developing lung disease, vs saline
  total number of alveolar macrophages: no significant difference
[8]; [21]
  lung collagen deposition (hydroxyproline): no effect; also recorded: not significantly altered
  static lung compliance (lung function): improved lung function; also recorded: increase in static lung compliance
[8]; early treatment, from week 5 after zymosan (week 5-11), 60 mg/kg daily gavage, vs saline, 60 mg/kg
  arthritis score / joint swelling: attenuated arthritis pathology; also recorded: significant reduction in their development of arthritis; also recorded: significantly reduced; also recorded: reversal of joint swelling
[8]; late (therapeutic) treatment for six weeks, established arthritis
  lung collagen (hydroxyproline) / pulmonary fibrosis: reduction of collagen deposition; also recorded: significant reduction of lung collagen; also recorded: significantly reduces; also recorded: significant decrease
[8]; late treatment
  BAL lymphocytes and neutrophils: neutrophils↑
  Lung hydroxiproline: hydroxiproline↓
  Lung tissue inflammatory macrophages: macrophages↑
[8]; late treatment, established lung disease
  static lung compliance: no significant difference
[8]; late treatment, from week 10 after zymosan (week 10-16), established disease, vs saline
  arthritis score / joint swelling: reduction of the arthritis score if the score was normalized to the last measurement before the start of the nintedanib treatment; also recorded: not altered; also recorded: slightly increased the resolution of joint swelling
[8]; late treatment, vs saline
  alveolar macrophages (BAL): no significant difference
  number of lymphocytes (BAL): small but significant elevation
  number of neutrophils (BAL): small but significant elevation
  total number of BAL cells: no significant difference
[8]; [22]
  percent survival: no significant change
  weight: no significant change
[8]; late treatment, if the data is normalised to the last scoring before the nintedanib treatment starts
  Arthritic score: score↓*
[8]; lungs, six weeks of nintedanib
  B220+ B-cells: small but significant increase
  CD4+ T-cells: small but significant increase
  macrophage numbers: no changes
[8]; nintedanib beginning at week 5
  lung dendritic cells: significant increase
  lung neutrophils: significant increase
[8]; nintedanib beginning at week 11
  increase in lung neutrophils: not at week 11
[9]
  expression of extracellular matrix markers: reduced
  migration: inhibited
  proliferation: inhibited
  transformation to myofibroblast: attenuated
PDGFR-α
  PDGFR-α activation: inhibit
[10]; an animal model of SSc
  number of vascular smooth muscle cells: reducing
  occluded pulmonary vessels: reducing
  pulmonary vascular remodelling: effectively attenuated
[10]; in vivo
  Lung fibrosis: effectively attenuated
  dermal microvascular endothelial cell apoptosis: reduced
  dermal thickening: reduced
  extracellular matrix deposition in skin and lung: reduced
  myofibroblast accumulation in skin and lung: attenuated
  skin fibrosis: effectively attenuated
[11]
  oral bioavailability: orally bioavailable
[12]
  arthritis score: no attenuating effect
[13]
  TGF-β-induced fibroblast to myofibroblast transformation: inhibited
[14]; in vivo
  accumulation of lymphocytes in the bronchoalveolar lavage fluid (BALF): attenuated
  chemokine CXCL1/KC in lung tissue: reduced
  collagen content in lung tissue: reduced
  interleukin (IL)-10 in lung tissue: reduced
  mRNA expression of procollagen 1: blocked
  mRNA expression of transforming growth factor (TGF)-β1: blocked
  tissue inhibitor of metalloproteinases (TIMP)-1 in lung tissue: reduced
[14]; [23]
  histology score of fibrosis in lung sections: reduced
  histology score of granuloma formation in lung sections: reduced
  histology score of inflammation in lung sections: reduced
[15]
  inhibition of FGFRs: highly potent
[16]
  bleomycin-induced skin fibrosis: attenuation
[17]
  migration of human lung fibroblasts from patients with IPF: inhibited
[17]; [24]
  FGF-2-stimulated migration: attenuated
  PDGF-stimulated migration: attenuated
Human lung fibroblast
  human lung fibroblast contraction: inhibits
[18]
  transformation of lung fibroblasts to myofibroblasts: attenuated

## Cc1ccc(=O)n(-c2ccccc2)c1 [pirfenidone, 5-methyl-1-phenyl-2(1H)-Pyridinone]
IPF patients; ASCEND Phase III trial
  primary endpoint of change from baseline FVC % predicted: met the primary endpoint
IPF patients; international Phase III CAPACITY program
  primary FVC lung function endpoint: efficacy on the primary FVC lung function endpoint in only one of two confirmatory trials
IPF patients; two local trials, Japan
  decline of vital capacity: reduced decline
